pEC50, pIC50: −log10 of the molar value. Where two headings read alike, the source gives them in different places.
Assays:
[1] = biological target: pFGFR4 in Huh7 cells (Homo sapiens (Human), UniProt P22455); assay: FGFR4 signaling, Meso Scale assay (MSD), Method B, Huh7
Description: Huh7 cells were grown in DMEM (Invitrogen, Carlsbad, Calif.) supplemented with 10% FBS (Invitrogen) and 1% Penicillin-Streptomycin (P/S, Lonza, Walkersville, Md.).
For the MSD and ELISA assays, total FGFR4 antibodies were obtained from R&D Systems (Minneapolis, Minn.) and used at 1:500. […] Phospho-FGFR antibodies were obtained from Cell Signaling (Danvers, Mass.) or R&D Systems and used at 1:1000. The phopho-FGFR antibody from Cell Signaling was used for immunoblotting, whereas the phopho-FGFR antibody from R&D was used for MSD and ELISA assays. Secondary antibodies were used at 1:10,000. The goat anti-mouse IgG IRDye 800CW antibody was obtained from LiCor Biosciences (Lincoln, Nebr.) and the goat anti-rabbit IgG Alexa Fluor 680 was obtained from Invitrogen. The anti-rabbit Sulfo-tag and anti-streptavidin Sulfo-tag antibodies was obtained from Meso Scale Discovery (Gaithersburg, Md.), and were used at 1:1000 and 1:5000, respectively.
After treatment, the cells were washed with cold PBS (Invitrogen), and were immediately lysed by freeze/thawing 3× in 32 μL of cold Cell Extraction Buffer (Invitrogen), which was supplemented with Complete Protease inhibitors (Roche) and PhosphoSTOP (Roche) phosphatase inhibitors.
MSD plates (Meso Scale Discovery) were coated with total FGFR-4 antibodies overnight at 4° C. A lysate (25 μL) was added to the MSD plate overnight at 4° C. The MSD signals were obtained by incubating with a phospho-FGFR antibody (R&D Systems) and an anti-rabbit sulfo-tag antibody (Meso Scale), for 2 hr at room temperature. […] The data was fitted using a sigmoidal curve analysis program (Graph Pad Prism version 5) with variable Hill slope to determine the EC50 values.

[2] = biological target: FGFR4-WT (Homo sapiens (Human), UniProt P22455); assay: Omnia assay for potency assessment against FGFR4 enzyme; type: biochemical
Description: A 10× stock solution of FGFR4-WT (PR4380C), (from Invitrogen, Carlsbad, Calif.) corresponding to method a in Table 7, was prepared as described below. Alternatively, a 10× stock solution of FGFR4-WT (F01-11G), (SignalChem, Richmond, BC) corresponding to method b in Table 7, was prepared as described below. A solution of 1.4×ATP (AS001A) and 5× Tyr-Sox conjugated peptide substrate (KNZ3101) were prepared in 1× kinase reaction buffer consisting of 20 mM Tris, pH 7.5, 5 mM MgCl2, 1 mM EGTA, 5 mM β-glycerophosphate, 5% glycerol (10× stock, KB002A) and 0.2 mM DTT (DS001A). […] The serially diluted compounds were prepared on a Tecan EVO100. A second addition of 10 μl of Tyr-Sox FGFR4 substrate was added to each well and the kinase reactions were started with the addition of 35 μL of 1.4×ATP. The reactions were monitored every 71 seconds for 240 minutes at λex360/λem485 in a Synergy plate reader from BioTek (Winooski, Vt.).

[3] = method a: [FGFR4-WT]=10 nM (Invitrogen), [ATP]=300 uM, [Y10-Sox]=10 uM
[4] = method b: [FGFR4-WT]=2.5 nM (SignalChem), [ATP]=250 uM, [Y10-Sox]=10 uM

FGFR4-WT, sequence (P22455 22-802): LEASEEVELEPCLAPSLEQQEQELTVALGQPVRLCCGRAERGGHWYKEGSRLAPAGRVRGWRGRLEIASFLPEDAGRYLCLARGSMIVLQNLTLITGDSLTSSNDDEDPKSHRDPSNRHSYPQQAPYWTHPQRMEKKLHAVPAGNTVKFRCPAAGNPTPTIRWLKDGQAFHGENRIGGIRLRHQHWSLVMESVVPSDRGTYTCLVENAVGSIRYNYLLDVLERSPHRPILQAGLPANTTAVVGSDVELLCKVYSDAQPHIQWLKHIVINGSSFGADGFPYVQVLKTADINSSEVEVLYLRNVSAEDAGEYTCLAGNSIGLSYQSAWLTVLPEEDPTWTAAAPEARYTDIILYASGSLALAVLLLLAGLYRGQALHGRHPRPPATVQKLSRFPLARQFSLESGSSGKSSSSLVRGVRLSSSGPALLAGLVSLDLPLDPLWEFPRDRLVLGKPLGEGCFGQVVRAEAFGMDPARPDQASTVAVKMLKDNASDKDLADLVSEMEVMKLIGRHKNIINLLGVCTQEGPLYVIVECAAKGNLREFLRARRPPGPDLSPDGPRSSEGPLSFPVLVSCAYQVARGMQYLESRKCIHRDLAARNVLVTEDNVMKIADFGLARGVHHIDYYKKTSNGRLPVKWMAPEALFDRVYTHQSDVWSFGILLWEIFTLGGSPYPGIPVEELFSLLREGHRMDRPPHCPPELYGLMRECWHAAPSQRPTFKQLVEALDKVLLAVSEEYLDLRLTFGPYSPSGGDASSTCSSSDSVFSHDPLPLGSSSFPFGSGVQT
pFGFR4 in Huh7 cells, sequence (P22455 22-802): as above

| SMILES | pEC50 [1] | pIC50 [2, 3] | pIC50 [2] | pIC50 [2, 4] |
| --- | --- | --- | --- | --- |
| C=CC(=O)Nc1cc(C(=O)NC2CCN(C)CC2)ccc1Nc1ncc2c(n1)N(C)C(=O)N(c1cc(OC)cc(OC)c1)C2 [Compound I-151] | < 6.00 | > 7.00 | – | – |
| C=CC(=O)Nc1ccc(C(F)(F)F)cc1Nc1ncc2c(n1)N(C)C(=O)N(c1cc(OC)cc(OC)c1)C2 [Compound I-50] | 6.30 to 7.00 | > 7.00 | – | – |
| C=CC(=O)NC1CN(C)CC1Nc1ncc2c(n1)N(C)C(=O)N(c1c(Cl)c(OC)cc(OC)c1Cl)C2 (racemic) [Compound I-138] | 6.30 to 7.00 | – | – | – |
| C=CC(=O)Nc1ccccc1Nc1ncc2c(n1)N(CC(F)F)C(=O)N(c1cc(OC)cc(OC)c1Cl)C2 [Compound I-104] | > 7.00 | > 7.00 | – | – |
| C=CC(=O)Nc1ccccc1Nc1ncc2c(n1)N(Cc1cscn1)C(=O)N(c1cc(OC)cc(OC)c1)C2 [Compound I-64] | 6.30 to 7.00 | > 7.00 | – | – |
| C=CC(=O)Nc1cc(N2CCN(C(=O)CCCC(=O)NCCCOCCOCCOCCCNC(=O)CCCC[C@@H]3SC[C@@H]4NC(=O)N[C@@H]43)CC2)ccc1Nc1ncc2c(n1)N(C)C(=O)N(c1c(Cl)c(OC)cc(OC)c1Cl)C2 [Compound I-127] | 6.30 to 7.00 | – | > 7.00 | – |
| C=CC(=O)NC1COCC1Nc1ncc2c(n1)N(C)C(=O)N(c1cc(OC)c(OC)c(OC)c1)C2 (centres unmarked) [Compound I-207] | < 6.00 | < 6.00 | – | – |
| C=CC(=O)Nc1nn(C)cc1Nc1ncc2c(n1)N(C)C(=O)N(c1c(Cl)c(OC)cc(OC)c1Cl)C2 [Compound I-117] | > 7.00 | > 7.00 | – | – |
| C=CC(=O)N[C@H]1COCC[C@H]1Nc1ncc2c(n1)N(C)C(=O)N(c1c(Cl)c(OC)cc(OC)c1Cl)C2 [Compound I-140] | 6.30 to 7.00 | 6.30 to 7.00 | – | – |
| C=CC(=O)NC1CCCCC1Nc1ncc2c(n1)N(Cc1ccn(C)c(=O)c1)C(=O)N(c1c(Cl)c(OC)cc(OC)c1Cl)C2 (centres unmarked) [Compound I-132] | 6.30 to 7.00 | > 7.00 | – | – |
| C=CC(=O)Nc1ccccc1Nc1ncc2c(n1)N(CC1CC1)C(=O)N(c1cc(OC)cc(OC)c1Cl)C2 [Compound I-100] | > 7.00 | > 7.00 | – | – |
| C=CC(=O)Nc1cc(N2CCN(CCOC)CC2)ccc1Nc1ncc2c(n1)N(Cc1cccc(NC(=O)CC)c1)C(=O)N(c1cc(OC)cc(OC)c1)C2 [Compound I-9] | 6.30 to 7.00 | – | – | – |
| C=CC(=O)N[C@H]1CCCC[C@H]1Nc1ncc2c(n1)N(C)C(=O)N(c1cc(OC)c(OC)c(OC)c1)C2 [Compound I-220] | < 6.00 | < 6.00 | – | – |
| C=CC(=O)NC1COCC1Nc1ncc2c(n1)N(C)C(=O)N(c1cc(C(=O)Nc3cccc(C(C)(C)C#N)c3)ccc1Cl)C2 (centres unmarked) [Compound I-246] | 6.30 to 7.00 | 6.30 to 7.00 | – | – |
| C=CC(=O)NC1COCC1Nc1ncc2c(n1)N(C)C(=O)N(c1ccc(OC)cc1)C2 (centres unmarked) [Compound I-209] | < 6.00 | < 6.00 | – | – |
| C=CC(=O)Nc1cc(C)ccc1Nc1ncc2cc(-c3c(Cl)c(OC)cc(OC)c3Cl)c(=O)n(C)c2n1 [Compound I-243] | > 7.00 | > 7.00 | – | – |
| C=CC(=O)Nc1cc(-c2nnnn2C)ccc1Nc1ncc2c(n1)N(C)C(=O)N(c1c(Cl)c(OC)cc(OC)c1Cl)C2 [Compound I-153] | > 7.00 | > 7.00 | – | – |
| C=CC(=O)Nc1ccccc1Nc1ncc2cc(-c3cc(OC)cc(OC)c3)c(N)nc2n1 [Compound I-155] | < 6.00 | – | – | – |
| C=CC(=O)Nc1ccccc1Nc1ncc2c(n1)N(C)C(=O)N(c1c(Cl)cccc1Cl)C2 [Compound I-83] | 6.30 to 7.00 | 6.30 to 7.00 | – | – |
| C=CC(=O)NC1COCC1Nc1ncc2c(n1)N(Cc1cnn(C)c1)C(=O)N(c1c(Cl)c(OC)cc(OC)c1Cl)C2 (centres unmarked) [Compound I-213] | > 7.00 | > 7.00 | – | – |
| C=CC(=O)NC1CN(c2ccncn2)CC1Nc1ncc2c(n1)N(C)C(=O)N(c1c(Cl)c(OC)cc(OC)c1Cl)C2 (centres unmarked) [Compound I-201] | 6.30 to 7.00 | > 7.00 | – | – |
| C=CC(=O)NC1CCCCC1Nc1ncc2c(n1)N(CCF)C(=O)N(c1c(Cl)c(OC)cc(OC)c1Cl)C2 (racemic) [Compound I-106] | 6.30 to 7.00 | – | – | – |
| C=CC(=O)NC1COCC1Nc1ncc2c(n1)N(C)C(=O)N(c1c(F)c(OC)cc(OC)c1F)C2 (centres unmarked) [Compound I-198] | > 7.00 | > 7.00 | – | – |
| C=CC(=O)N[C@H]1CCCC[C@H]1Nc1ncc2c(n1)N(C)C(=O)N(c1c(F)c(OC)cc(OC)c1Br)C2 [Compound I-228] | 6.30 to 7.00 | 6.30 to 7.00 | – | – |
| C=CC(=O)NC1COCC1Nc1ncc2c(n1)N(C)C(=O)N(c1cc(C(=O)Nc3cccc(C(C)(C)C)c3)ccc1Cl)C2 (centres unmarked) [Compound I-247] | > 7.00 | 6.30 to 7.00 | – | – |
| C=CC(=O)Nc1cc(C)ccc1Nc1ncc2c(n1)N(C)C(=O)N(c1cc(OC)cc(OC)c1)C2 [Compound I-41] | 6.30 to 7.00 | > 7.00 | – | – |

| SMILES | pEC50 [1] | pIC50 [2, 3] | pIC50 [2] | pIC50 [2, 4] |
| --- | --- | --- | --- | --- |
| C=CC(=O)Nc1cc(N(C)CCOC)ccc1Nc1ncc2c(n1)N(Cc1ccccc1)C(=O)N(c1cc(OC)cc(OC)c1)C2 [Compound I-13] | 6.30 to 7.00 | – | – | 6.30 to 7.00 |
| C=CC(=O)NC1COCC1Nc1ncc2c(n1)N(C)C(=O)N(c1c(Cl)c(OCC)cc(OCC)c1Cl)C2 (centres unmarked) [Compound I-205] | 6.30 to 7.00 | 6.30 to 7.00 | – | – |
| C=CC(=O)N[C@H]1COC[C@H]1Nc1ncc2c(n1)N(C)C(=O)N(c1c(Cl)c(OC)cc(OC)c1Cl)C2 [Compound I-186] | > 7.00 | > 7.00 | – | – |
| C=CC(=O)Nc1ccccc1Nc1ncc2c(n1)N(Cc1cccnc1)C(=O)N(c1cc(OC)cc(OC)c1)C2 [Compound I-44] | > 7.00 | > 7.00 | – | – |
| C=CC(=O)N[C@H]1CCCC[C@H]1Nc1ncc2c(n1)N(C)C(=O)N(c1c(Cl)c(OCC)cc(OCC)c1Cl)C2 [Compound I-219] | 6.00 to 6.30 | 6.30 to 7.00 | – | – |
| C=CC(=O)NC1COCC1Nc1ncc2c(n1)N(Cc1cn[nH]c1)C(=O)N(c1c(Cl)c(OC)cc(OC)c1Cl)C2 (centres unmarked) [Compound I-214] | 6.30 to 7.00 | – | – | – |
| C=CC(=O)Nc1ccccc1Nc1ncc2c(n1)N(C)C(=O)N(c1cc(OC)cc(OC)c1)C2 [Compound I-5] | 6.30 to 7.00 | > 7.00 | – | – |
| C=CC(=O)Nc1ccccc1Nc1ncc2c(n1)N(CCF)C(=O)N(c1cc(OC)cc(OC)c1Cl)C2 [Compound I-110] | > 7.00 | > 7.00 | – | – |
| C=CC(=O)Nc1ccccc1Nc1ncc2c(n1)N(Cc1cn[nH]c1)C(=O)N(c1c(Cl)c(OC)cc(OC)c1Cl)C2 [Compound I-124] | > 7.00 | > 7.00 | – | – |
| C=CC(=O)NC1CCCCC1Nc1ncc2c(n1)N(Cc1csc(C)n1)C(=O)N(c1c(Cl)c(OC)cc(OC)c1Cl)C2 (centres unmarked) [Compound I-137] | 6.30 to 7.00 | > 7.00 | – | – |
| C=CC(=O)NC1COCC1Nc1ncc2c(n1)N(C)C(=O)N(c1c(F)c(OC)cc(OC)c1Cl)C2 (centres unmarked) [Compound I-206] | > 7.00 | > 7.00 | – | – |
| C=CC(=O)N[C@@H]1COC[C@@H]1Nc1ncc2c(n1)N(C)C(=O)N(c1c(Cl)c(OC)cc(OC)c1Cl)C2 [Compound I-185] | < 6.00 | < 6.00 | – | – |
| C=CC(=O)Nc1ccccc1Nc1ncc2c(n1)N(Cc1ccnc(N)c1)C(=O)N(c1cc(OC)cc(OC)c1)C2 [Compound I-87] | > 7.00 | > 7.00 | – | – |
| C=CC(=O)Nc1ccccc1Nc1ncc2c(n1)N(CC1CC1)C(=O)N(c1cc(OC)cc(OC)c1)C2 [Compound I-98] | > 7.00 | > 7.00 | – | – |
| C=CC(=O)N[C@H]1CCCC[C@H]1Nc1ncc2c(n1)N(C)C(=O)N(c1c(Cl)c(OC)c(OC)c(OC)c1Cl)C2 [Compound I-221] | < 6.00 | – | – | – |
| C=CC(=O)Nc1ccccc1Nc1ncc2c(n1)N(Cc1ccc(F)cc1)C(=O)N(c1c(Cl)c(OC)cc(OC)c1Cl)C2 [Compound I-25] | 6.30 to 7.00 | – | – | 6.30 to 7.00 |
| C=CC(=O)Nc1cc(-c2nnn(C)n2)ccc1Nc1ncc2c(n1)N(C)C(=O)N(c1cc(OC)cc(OC)c1)C2 [Compound I-146] | 6.30 to 7.00 | > 7.00 | – | – |
| C=CC(=O)N[C@H]1CCCC[C@H]1Nc1ncc2c(n1)N(Cc1cscn1)C(=O)N(c1c(Cl)c(OC)cc(OC)c1Cl)C2 [Compound I-114] | 6.30 to 7.00 | – | – | – |
| C=CC(=O)Nc1cc(OC)ccc1Nc1ncc2cc(-c3c(Cl)c(OC)cc(OC)c3Cl)c(=O)n(C)c2n1 [Compound I-242] | > 7.00 | – | – | – |
| C=CC(=O)Nc1ccccc1Nc1ncc2c(n1)N(CC(O)CO)C(=O)N(c1cc(OC)cc(OC)c1)C2 (centres unmarked) [Compound I-33] | < 6.00 | – | – | – |
| COc1cc(OC)c(Cl)c(N2Cc3cnc(Nc4ccccc4)nc3N(C)C2=O)c1Cl [Compound I-238] | > 7.00 | – | – | – |
| C=CC(=O)NC1COCC1Nc1ncc2c(n1)N(Cc1cscn1)C(=O)N(c1c(Cl)c(OC)cc(OC)c1Cl)C2 (centres unmarked) [Compound I-210] | > 7.00 | – | – | – |
| C=CC(=O)NC1CN(C(C)=O)CC1Nc1ncc2c(n1)N(C)C(=O)N(c1c(Cl)c(OC)cc(OC)c1Cl)C2 (racemic) [Compound I-139] | 6.30 to 7.00 | – | – | – |
| C=CC(=O)NC1COCC1Nc1ncc2c(n1)N(CC1CC1)C(=O)N(c1c(Cl)c(OC)cc(OC)c1Cl)C2 (centres unmarked) [Compound I-212] | > 7.00 | – | – | – |
| C=CC(=O)Nc1ccccc1Nc1ncc2c(n1)N(CC)C(=O)N(CC)C2 [Compound I-120] | – | < 6.00 | – | – |
| C=CC(=O)Nc1cc(N2CCCCC2)ccc1Nc1ncc2c(n1)N(C)C(=O)N(c1cc(OC)cc(OC)c1)C2 [Compound I-31] | – | > 7.00 | – | – |

From patent US9695132B2, “Heteroaryl compounds and uses thereof” (Celgene CAR LLC, priority 2013, dated 2017)
